Where two headings read alike, the source gives them in different places.
Legend:
Format in all cases: cell-based
[1] = tested on: human embryonic lung fibroblast IMR-90; assay: Anti-fibrosis activity test: inhibition of proliferation of human embryonic lung fibroblast IMR-90 (CCK-8)
In short: (§1)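 Cells seeded at 2×10^4 cells/mL, adhered 24 h, then exposed to compound concentrations in triplicate for 48 h at 37° C, 5% CO2. CCK-8 added for 2 h, absorbance at 450 nm; inhibition = (1−Ai/Ao)×100% versus blank control, IC50 calculated.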

[2] = tested on: cardiac fibroblast RAT-iCell-C002; assay: Anti-fibrosis activity test: inhibition of proliferation of cardiac fibroblast RAT-iCell-C002 (CCK-8); details: Cardiac fibroblast, 48 h
In short: as §1

[3] = tested on: human hepatic stellate cells LX-2; assay: Anti-fibrosis activity test: inhibition of proliferation of human hepatic stellate cells LX-2 (CCK-8); details: Homo sapiens, 48 h
In short: as §1

[4] = tested on: mouse macrophages (RAW264.7); assay: Lipopolysaccharide-induced NO secretion in macrophages (Griess); details: RAW264.7, LPS 1 μg/ml, a/b isomers given as first/second symbol, read-out: IC50 (μM), inhibition of lipopolysaccharide-induced NO secretion in macrophages
In short: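 RAW264.7 macrophages in DMEM with 10% FBS received test samples at several concentrations and were stimulated with 1 μg/ml LPS for 24 h. NO in the supernatant was measured with the Griess reagent at 548 nm, […].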

[5] = tested on: human dermal fibroblasts CCC-ESF-1; assay: Anti-fibrosis activity test: inhibition of proliferation of human dermal fibroblasts CCC-ESF-1 (CCK-8); details: Fibroblast
In short: as §1

[6] = tested on: human lung fibroblasts HFL1; assay: Anti-fibrosis activity test: inhibition of proliferation of human lung fibroblasts HFL1 (CCK-8); details: Homo sapiens, HFL1, 48 h
In short: as §1

[7] = tested on: human fibrosarcoma cells HT-1080; assay: Anti-fibrosis activity test: inhibition of proliferation of human fibrosarcoma cells HT-1080 (CCK-8)
In short: as §1

BHK-21 cells = assay: Anti-fibrosis activity test: inhibition of BHK-21 cell proliferation (CCK-8); details: Mesocricetus auratus, BHK-21, 48 h
In short: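 Read-out: CCK-8 absorbance at 450 nm after 2 h, giving proliferation inhibition (1−Ai/Ao)×100% versus blank control, from which IC50 was derived. Cells had been treated with compounds for 48 h after 24 h adherence at 37° C. Pirfenidone served as positive control.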

[8] = human embryonic lung fibroblast IMR-90, CCK-8, 48 hours
[9] = cardiac fibroblast RAT-iCell-C002, CCK-8, 48 hours
[10] = human hepatic stellate cells LX-2, CCK-8, 48 hours
[11] = human dermal fibroblasts CCC-ESF-1, CCK-8, 48 hours
[12] = human lung fibroblasts HFL1, CCK-8, 48 hours
[13] = CCK-8, 48 hours after administration
[14] = Homo sapiens, HT-1080, 48 h, human fibrosarcoma cells HT-1080, CCK-8, 48 hours
[15] = Homo sapiens, IMR-90 cells, 48 h, CCK-8
[16] = Homo sapiens, CCC-ESF-1 cells, 48 h, CCK-8
[17] = Homo sapiens, HT-1080, 48 h, HT-1080 cells, 48 h, CCK-8

IC50 ([4]; 24 hours) [µM]	IC50 ([7]; human fibrosarcoma cells HT-1080, CCK-8, 48 hours) [mM]	IC50 ([4]; Mus musculus, RAW264.7, 24 h) [µM]	IC50 [7, 14] [mM]	IC50 [7, 17] [mM]	SMILES	IC50 [1, 8] [mM]	IC50 [2, 9] [mM]	IC50 [3, 10] [mM]	IC50 [5, 11] [mM]	IC50 [6, 12] [mM]	IC50 (BHK-21 cells; [13]) [mM]	IC50 [1, 15] [mM]	IC50 ([2]; RAT-iCell-C002 cells, CCK-8) [mM]	IC50 ([3]; LX-2, 48 h, LX-2 cells, CCK-8) [mM]	IC50 [5, 16] [mM]	IC50 ([6]; HFL1 cells, 48 h, CCK-8) [mM]	IC50 (BHK-21 cells; 48 h, CCK-8) [mM]
1 to 10	5 to 20				O=C1c2c(nc3c(C(F)(F)F)c(N4CCNCC4)ccc3c2OCc2ccc(Cl)cc2)-c2cccn21 [Compound 483b, 9-((4-chlorobenzyl)oxy)-6-(piperazin-1-yl)-5-(trifluoromethyl)-10H-pyrrolizino[1,2-b]quinolin-10-one]	0.05 to 5	0.05 to 5	0.05 to 5	0.05 to 5	0.05 to 5	0.05 to 5						
		1 to 10	0.05 to 5		O=C1c2c(n(Cc3ccc(F)cc3)c3cc(Cl)ccc3c2=O)-c2cccn21 [Compound 502a, 6-Chloro-4-(4-fluorobenzyl)-9H-pyrrolizino[1,2-b]quinoline-9,10(4H)-dione]	0.05 to 5	< 0.05	0.05 to 5	0.05 to 5	0.05 to 5	0.05 to 5						
		10 to 50		0.05 to 5	Cc1cc(C)c2c(=O)c3c([nH]c2c1)C(=O)n1cccc1-3 [Compound 782a, 8,10-Dimethyl-5H-pyrrolizino[2,1-b]quinoline-5,11(6H)-dione]							0.05 to 5	0.05 to 5	0.05 to 5	0.05 to 5	0.05 to 5	0.05 to 5
		1 to 10		0.05 to 5	Cc1cc(C)c2c(O)c3c(nc2c1)C(=O)n1cccc1-3 [Compound 782b, 11-hydroxy-8,10-dimethyl-5H-pyrrolizino[2,1-b]quinolin-5-one]							0.05 to 5	0.05 to 5	0.05 to 5	0.05 to 5	0.05 to 5	0.05 to 5
		0.1 to 1	5 to 20		N#Cc1cccc2c1c(=O)c1c(n2Cc2ccccc2F)-c2cccn2C1=O [Compound 469a, 4-(2-Fluorobenzyl)-9,10-dioxo-4,10-dihydro-9H-pyrrolizino[1,2-b]quinoline-8-carbonitrile]	0.05 to 5	0.05 to 5	0.05 to 5	0.05 to 5	0.05 to 5	< 0.05						
		1 to 10	0.05 to 5		CC(C)=CCn1c2c(c(=O)c3cc(F)c(N4CCNCC4)cc31)C(=O)n1cccc1-2 [Compound 354a, 7-Fluoro-4-(3-methylbut-2-en-1-yl)-6-(piperazin-1-yl)-9H-pyrrolizino[1,2-b]quinoline-9,10(4H)-dione]	0.05 to 5	< 0.05	5 to 20	0.05 to 5	0.05 to 5	0.05 to 5						
		1 to 10	0.05 to 5		N#Cc1cccc2c(=O)c3c(n(Cc4ccc(F)cc4)c12)-c1cccn1C3=O [Compound 449a, 4-(4-Fluorobenzyl)-9,10-dioxo-4,10-dihydro-9H-pyrrolizino[1,2-b]quinoline-5-carbonitrile]	0.05 to 5	0.05 to 5	0.05 to 5	0.05 to 5	0.05 to 5	0.05 to 5						
		10 to 50		0.05 to 5	Cc1cc2[nH]c3c(c(=O)c2cc1C)-c1cccn1C3=O [Compound 781a, 8,9-Dimethyl-5H-pyrrolizino[2,1-b]quinoline-5,11(6H)-dione]							0.05 to 5	0.05 to 5	0.05 to 5	0.05 to 5	0.05 to 5	0.05 to 5
		0.1 to 1	0.05 to 5		O=C1c2c(nc3cc(N4CCNCC4)c(C(F)(F)F)cc3c2O)-c2cccn21 [Compound 397b, 9-hydroxy-6-(piperazin-1-yl)-7-(trifluoromethyl)-10H-pyrrolizino[1,2-b]quinolin-10-one]	0.05 to 5	0.05 to 5	0.05 to 5	0.05 to 5	0.05 to 5	0.05 to 5						
		1 to 10		0.05 to 5	O=C1c2nc3ccccc3c(OCCN3CCOCC3)c2-c2cccn21 [Compound 785b, 11-(2-morpholinoethoxy)-5H-pyrrolizino[2,1-b]quinolin-5-one]							0.05 to 5	0.05 to 5	0.05 to 5	0.05 to 5	0.05 to 5	0.05 to 5
		1 to 10	0.05 to 5		O=C1c2c(n(Cc3ccccc3Cl)c3c(Cl)cccc3c2=O)-c2cccn21 [Compound 461a, 5-Chloro-4-(2-chlorobenzyl)-9H-pyrrolizino[1,2-b]quinoline-9,10(4H)-dione]	0.05 to 5	0.05 to 5	< 0.05	0.05 to 5	0.05 to 5	< 0.05						
		1 to 10	0.05 to 5		O=C1c2c(n(Cc3ccc(Cl)cc3)c3c(Cl)cccc3c2=O)-c2cccn21 [Compound 451a, 5-Chloro-4-(4-chlorobenzyl)-9H-pyrrolizino[1,2-b]quinoline-9,10(4H)-dione]	0.05 to 5	0.05 to 5	0.05 to 5	0.05 to 5	< 0.05	0.05 to 5						
		1 to 10	0.05 to 5		N#Cc1cccc2c(=O)c3c(n(Cc4ccccc4F)c12)-c1cccn1C3=O [Compound 456a, 4-(2-Fluorobenzyl)-9,10-dioxo-4,10-dihydro-9H-pyrrolizino[1,2-b]quinoline-5-carbonitrile]	0.05 to 5	0.05 to 5	< 0.05	0.05 to 5	0.05 to 5	0.05 to 5						
		1 to 10	0.05 to 5		O=C1c2c(n(Cc3ccc(F)cc3)c3c(F)cccc3c2=O)-c2cccn21 [Compound 452a, 5-Fluoro-4-(4-fluorobenzyl)-9H-pyrrolizino[1,2-b]quinoline-9,10(4H)-dione]	0.05 to 5	0.05 to 5	< 0.05	0.05 to 5	0.05 to 5	0.05 to 5						
		1 to 10	5 to 20		O=C1c2c(nc3c(Cl)cccc3c2OCc2cccc(Cl)c2)-c2cccn21 [Compound 459b, 5-chloro-9-((3-chlorobenzyl)oxy)-10H-pyrrolizino[1,2-b]quinolin-10-one]	0.05 to 5	0.05 to 5	0.05 to 5	0.05 to 5	0.05 to 5	0.05 to 5						
		1 to 10	0.05 to 5		CC(C)=CCOc1c2c(nc3cc(N4CCNCC4)c(F)cc13)-c1cccn1C2=O [Compound 354b, 7-fluoro-9-((3-methylbut-2-en-1-yl)oxy)-6-(piperazin-1-yl)-10H-pyrrolizino[1,2-b]quinolin-10-one]	0.05 to 5	0.05 to 5	5 to 20	0.05 to 5	0.05 to 5	0.05 to 5						
		1 to 10	< 0.05		O=C1c2c(nc3cccc(F)c3c2OCc2cccc(F)c2)-c2cccn21 [Compound 475b, 8-fluoro-9-((3-fluorobenzyl)oxy)-10H-pyrrolizino[1,2-b]quinolin-10-one]	0.05 to 5	0.05 to 5	0.05 to 5	0.05 to 5	0.05 to 5	0.05 to 5						
		1 to 10	0.05 to 5		O=C1c2c(nc3ccc(C(F)(F)F)cc3c2Oc2ccc(Cl)cc2)-c2cccn21 [Compound 276b, 9-(4-chlorophenoxy)-7-(trifluoromethyl)-10H-pyrrolizino[1,2-b]quinolin-10-one]	0.05 to 5	0.05 to 5	0.05 to 5	0.05 to 5	0.05 to 5	0.05 to 5						

SMILES	IC50 ([4]; 24 hours) [µM]	IC50 ([7]; human fibrosarcoma cells HT-1080, CCK-8, 48 hours) [mM]	IC50 ([4]; Mus musculus, RAW264.7, 24 h) [µM]	IC50 [7, 14] [mM]	IC50 [7, 17] [mM]	IC50 [1, 8] [mM]	IC50 [2, 9] [mM]	IC50 [3, 10] [mM]	IC50 [5, 11] [mM]	IC50 [6, 12] [mM]	IC50 (BHK-21 cells; [13]) [mM]	IC50 [1, 15] [mM]	IC50 ([2]; RAT-iCell-C002 cells, CCK-8) [mM]	IC50 ([3]; LX-2, 48 h, LX-2 cells, CCK-8) [mM]	IC50 [5, 16] [mM]	IC50 ([6]; HFL1 cells, 48 h, CCK-8) [mM]	IC50 (BHK-21 cells; 48 h, CCK-8) [mM]
COc1c2c(nc3cc(N4CCNCC4)c(F)cc13)-c1cccn1C2=O [Compound 361b, 7-fluoro-9-methoxy-6-(piperazin-1-yl)-10H-pyrrolizino[1,2-b]quinolin-10-one]			1 to 10	0.05 to 5		0.05 to 5	0.05 to 5	5 to 20	0.05 to 5	0.05 to 5	0.05 to 5						

— US11040028B2, “Penicinotam derivative, preparation method and use thereof” (OCEAN UNIVERSITY OF CHINA, priority 2017, dated 2021)
